In assay [1] the target is IRAK1 (Homo sapiens, UniProt P51617). Kind of assay: c-ponatinib pulldown LC-MS/MS. The assay is classed as binding. The essentials:
(§1)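 Read-out: interaction P-value combining Mascot scores, Phenyx scores and spectral counts (Fisher's method), plus fold reduction of median spectral counts on free-compound competition. Proteins were enriched from 10 mg cell lysate on c-ponatinib beads, then trypsin-digested for LC-MS/MS.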

Assay [2] has as its target T1, GAK (Homo sapiens, UniProt O14976).
T1 sequence (O14976 1-1311): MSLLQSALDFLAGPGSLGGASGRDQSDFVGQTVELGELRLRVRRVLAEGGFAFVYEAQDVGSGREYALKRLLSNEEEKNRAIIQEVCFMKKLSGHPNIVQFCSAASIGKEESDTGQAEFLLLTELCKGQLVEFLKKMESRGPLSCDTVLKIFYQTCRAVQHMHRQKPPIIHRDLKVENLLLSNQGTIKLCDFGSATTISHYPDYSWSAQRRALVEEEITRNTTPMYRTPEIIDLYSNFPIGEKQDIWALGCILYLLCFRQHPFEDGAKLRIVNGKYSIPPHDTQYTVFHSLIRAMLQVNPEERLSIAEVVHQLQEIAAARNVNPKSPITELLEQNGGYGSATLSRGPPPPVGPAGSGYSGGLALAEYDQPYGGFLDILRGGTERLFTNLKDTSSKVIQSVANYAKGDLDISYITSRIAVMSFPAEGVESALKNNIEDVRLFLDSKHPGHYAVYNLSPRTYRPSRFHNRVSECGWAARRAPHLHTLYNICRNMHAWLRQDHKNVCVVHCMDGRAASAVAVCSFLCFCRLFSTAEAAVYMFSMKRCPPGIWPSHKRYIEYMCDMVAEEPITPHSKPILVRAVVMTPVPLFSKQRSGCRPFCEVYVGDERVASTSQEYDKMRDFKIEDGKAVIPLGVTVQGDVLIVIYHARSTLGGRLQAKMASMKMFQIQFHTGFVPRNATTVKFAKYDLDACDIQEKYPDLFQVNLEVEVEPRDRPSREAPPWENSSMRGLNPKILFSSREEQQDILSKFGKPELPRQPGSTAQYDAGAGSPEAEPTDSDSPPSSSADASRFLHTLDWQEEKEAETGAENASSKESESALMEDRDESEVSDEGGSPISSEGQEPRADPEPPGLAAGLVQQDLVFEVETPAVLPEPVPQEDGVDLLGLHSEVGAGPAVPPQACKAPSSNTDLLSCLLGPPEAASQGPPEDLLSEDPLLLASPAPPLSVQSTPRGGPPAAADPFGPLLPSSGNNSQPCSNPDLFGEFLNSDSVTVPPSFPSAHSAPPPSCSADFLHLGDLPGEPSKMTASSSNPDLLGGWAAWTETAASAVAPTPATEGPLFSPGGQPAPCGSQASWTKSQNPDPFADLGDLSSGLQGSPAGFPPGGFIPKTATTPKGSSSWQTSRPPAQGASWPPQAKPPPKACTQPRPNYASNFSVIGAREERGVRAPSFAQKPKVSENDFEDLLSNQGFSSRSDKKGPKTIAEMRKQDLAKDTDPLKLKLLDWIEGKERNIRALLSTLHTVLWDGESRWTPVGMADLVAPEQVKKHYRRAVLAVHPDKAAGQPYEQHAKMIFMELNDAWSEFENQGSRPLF
As to the kind of experiment: c-ponatinib pulldown LC-MS/MS. The assay is classed as binding. An outline of the steps:
as §1

IRAK1, sequence (P51617 whole entry): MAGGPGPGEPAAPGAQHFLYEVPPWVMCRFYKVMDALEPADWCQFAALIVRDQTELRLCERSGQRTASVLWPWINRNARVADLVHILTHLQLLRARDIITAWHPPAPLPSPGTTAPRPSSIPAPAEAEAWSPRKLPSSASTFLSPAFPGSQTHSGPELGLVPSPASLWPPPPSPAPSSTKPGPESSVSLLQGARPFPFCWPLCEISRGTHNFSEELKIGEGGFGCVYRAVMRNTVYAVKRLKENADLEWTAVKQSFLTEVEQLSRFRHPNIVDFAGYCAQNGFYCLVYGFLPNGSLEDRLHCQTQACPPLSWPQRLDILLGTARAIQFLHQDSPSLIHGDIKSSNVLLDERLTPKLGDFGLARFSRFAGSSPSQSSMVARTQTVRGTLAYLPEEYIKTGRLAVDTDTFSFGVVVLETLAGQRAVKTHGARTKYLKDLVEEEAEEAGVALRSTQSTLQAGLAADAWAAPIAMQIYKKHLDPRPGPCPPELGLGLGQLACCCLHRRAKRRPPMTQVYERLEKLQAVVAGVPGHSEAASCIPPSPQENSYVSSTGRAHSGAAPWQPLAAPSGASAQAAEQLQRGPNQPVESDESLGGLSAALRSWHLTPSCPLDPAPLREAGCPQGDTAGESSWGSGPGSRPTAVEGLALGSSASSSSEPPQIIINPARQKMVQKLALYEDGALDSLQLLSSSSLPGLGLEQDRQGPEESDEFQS

Turning to `Cc1ccc(C(=O)Nc2ccc(CN3CCN(CCCN)CC3)c(C(F)(F)F)c2)cc1C#Cc1cnc2cccnn12` [c-ponatinib], in assay [1] (+ free ponatinib), the “Av. SC comp.” value is 4 and the “Total SC comp.” value is 16. Further, in assay [1] (no competitor), the “Av. SC” value turned out to be 24.25 and the “Total SC” value is given as 97. In assay [2] (+ free ponatinib), the “Av. SC comp.” value amounted to 10.25 and the “Total SC comp.” value came out at 41. In assay [2] (no competitor), the “Av. SC” value was found to be 22.75 and the “Total SC” value is 91.

The values are drawn from paper PMC4669708 (Cell Death & Disease, 2015).
